In patent US9694089B2, “Integrin targeting agents and in-vivo and in-vitro imaging methods using the same” (Visen Medical, Inc., priority 2008, dated 2017):

How the values were obtained:
α5β1 = target: T1, α5β1 (Homo sapiens, UniProt P05556+P08648); assay: Inhibition of cell attachment to vitronectin, HEK293 cells transfected with α5β1; type: cell-based; conditions: for IC50: HEK293 cells stably transfected with α5β1
T1 construct: expressed in transfected cells; host or cells: HEK293
Protocol: (§1) In this experiment, human embryonic kidney (HEK293) cells stably transfected with ανβ3 (HEK293-ανβ3 cells) were released with trypsin-EDTA and washed four times with serum-free MEM. Cells (25,000 cells/well) were added to microtiter wells coated with vitronectin and allowed to attach for 2 hours at 37° C. in a humidified incubator in the absence or presence of increasing concentrations of compound E-6 or unlabelled parent compound (as an inhibitor of E-6). Non-attached cells were gently washed away. Similar experiments were carried out with HEK293 cells stably transfected with ανβ5, α11bβ3, or α5β1. The attached cells were quantified by colorimetric detection of hexosaminidase enzymatic activity in a Vmax plate reader (Molecular Devices, Menlo Park, Calif.). The number of attached cells was quantified using a standard curve for each cell line assayed and expressed as a mean value of triplicate samples.

4T-1 tumors = assay: In vivo imaging of 4T-1 tumors; design: species or system NU/NU mice; conditions: 4 nmoles i.v., 24 hours post-injection
Protocol: In this experiment, NU/NU mice 6-8 weeks old (Charles River Laboratory, Wilmington, Mass.) were injected subcutaneously (s.c.) with 2×10^6 4T-1 cells bilaterally in each mammary fat pad. When tumors reached an approximate size of 3×3 mm (around 7 days after cell injection), mice were injected intravenously (i.v.) with 4 nmoles of each integrin agent (5 mice/probe+2 mice/no probe as control) in 100 μL volume via tail vein. Imaging was conducted 24 hours post-injection using a Fluorescence Molecular Tomography system (VisEn Medical, Bedford, Mass.).

ανβ5 = target: T2, ανβ5 (Homo sapiens, UniProt P06756+P18084); assay: Inhibition of cell attachment to vitronectin, HEK293 cells transfected with ανβ5; type: cell-based; conditions: for IC50: HEK293 cells stably transfected with ανβ5, read-out: IC50 (nM), inhibition of cell attachment to vitronectin, αvβ5
T2 construct: expressed in transfected cells; host or cells: HEK293
Protocol: as §1, with “Cells (25,000 cells/well) were added to microtiter wells coated with vitronectin and allowed to attach for 2 hours at 37° C. in a humidified incubator in the absence or presence of increasing concentrations of compound E-6 or unlabelled parent compound (as an inhibitor of E-6).” left out

A673 tumors [1] = assay: In vivo FMT imaging and quantification of signal in A673 tumor-bearing mice; design: species or system NU/NU mice
Protocol: Female NU/NU mice 6-8 weeks old (Charles River Laboratory, Wilmington, Mass.) were injected subcutaneously (s.c.) with A673 cells (5×10^6) in the first mammary fat pads. Once tumors reached the desired volume (measured with calipers using the formula volume mm^3=(length×width^2)/2), mice were injected i.v. with E-6 ([…]) in the absence or presence of excess, competing parent compound (100 nmoles). Control mice received free dye. For in vivo imaging, mice were anesthetized by gas anesthesia (isoflurane/oxygen mixture), placed in the VisEn's FMT2500 system imaging chamber one at a time, and imaged.
The fluorescent signal was quantified by drawing a three-dimensional ROI encompassing each tumor.

ανβ3 [2] = target: T3, ανβ3 (Homo sapiens, UniProt P05106+P06756); assay: Confocal microscopy cell binding assay on HEK293-ανβ3 cells; type: cell-based
T3 construct: expressed in transfected cells; host or cells: HEK293
Protocol: Cell binding assays using HEK293 cells stably expressing human ανβ3 were performed.
HEK293 cells stably transfected with ανβ3 (HEK293-ανβ3 cells) were plated onto poly-L-lysine coated Lab-Tek II chambered coverglass (Nuns, Rochester, N.Y.) the day before the assay. Cells were first incubated with DAPI (10 μg/ml) for 3 hours, followed by CellMask (Invitrogen, Carlsbad, Calif.) staining for 5 minutes. Cells were then washed 2× with PBS and incubated with E-6 (200 nM in PBS containing 5% serum) at 4° C. or 37° C. for 30 minutes. For the competition study, cells were incubated with parent compound (200 μM) for 1 hour before E-6 incubation. Confocal microscopy was performed on a Leica SP5 confocal system (Leica, Wetzlar, Germany).

[3] = system: HUVEC (Human umbilical vein endothelial cells); assay: Cell binding assay by fluorescence microscopy, HUVEC; type: cell-based
Protocol: (§2) Cell binding assays were performed using HUVEC (Human umbilical vein endothelial cells) and human rhabdomyosarcoma A673 tumor cells. HUVEC or A673 (50,000 cells) (ATCC, Manassas, Va.) were seeded unto 8-well Lab-Tek chamberslides (Nalge-Nunc International, Naperville, Ill.) and left to adhere overnight at 37° C. in a humidified atmosphere containing 5% CO2. The following day, the medium was changed to fresh complete medium containing compound E-6 or free dye (20 nM), incubated for 30 minutes at 37° C., washed 2×with PBS and fixed with paraformaldehyde for 30 minutes at 4° C. Competition studies were performed by pre-incubating the cells for 5 minutes with parent compound (200 nM) before addition of E-6. The cells on the microscopy slides were then allowed to air dry protected from light. The slides were mounted with ProLong® Gold antifade reagent with DAPI (Molecular Probes, Eugene, Oreg.) and cured overnight at room temperature protected from light. Merged images of the nuclear staining (DAPI) and fluorescent signals were collected using fluorescence microscopy (Zeiss, Thornwood, N.Y.)

[4] = Plasma pharmacokinetics in mice; type: in vivo, BALB/c mice; conditions: 2 nmoles i.v. bolus, two compartmental model
Excerpt: Twenty-four female retired breeder BALB/c mice (Charles River Laboratories, Wilmington, Mass.) received a bolus intravenous (i.v.) injection of compound E-6 (2 nmoles in PBS). Terminal blood samples were collected by cardiac puncture from each mouse (following carbon dioxide asphyxiation). Three mice were sampled for each time point. Plasma was collected by centrifugation, diluted 1:2 in DMSO and fluorescence read using a fluorescence plate reader (Molecular Devices, Sunnyvale, Calif.). Data was normalized to a standard curve (FIG. 5A) prepared with known concentrations of E-6.

[5] = system: human rhabdomyosarcoma A673 tumor cells; assay: Cell binding assay by fluorescence microscopy, A673 tumor cells; type: cell-based
Protocol: as §2

A673 tumors [6] = assay: Effect of Avastin treatment on integrin and cathepsin B signals in A673 tumor-bearing mice; type: in vivo
Protocol: A673 tumor-bearing mice were randomized once their tumors reached the desired volume and injected i.v. with either E-6 (2 nmoles) or free dye (2 nmoles). For competition studies, mice were injected with the parent compound (100 nmoles) followed 5 minutes later by compound E-6 ([…]). For therapy studies, mice were treated with either 2 mg/kg Avastin (bevacizumab, Genentech, CA) or vehicle (PBS) intraperitoneally (i.p.) 2× week, and injected 7 days after beginning the treatment with 2 nmoles each of compound E-6 and ProSense (ProSense750, VisEn Medical, Bedford, Mass.) in a final volume of 200 μl PBS. ProSense is a protease-activatable fluorescence agent comprising fluorochromes linked to a peptide scaffold. Proteolytic cleavage of the scaffold by cathepsin B activity (and to a lesser extent cathepsins K, L, and S) releases the fluorochromes and results in extensive fluorescence (via dequenching). Imaging was performed 24 hours after administration of the agents using the FMT2500. Differential localization of fluorescent signal with compound E-6 and ProSense can be seen in the same animal. The wavelength of the laser was selected to 680 nm or 750 nm, corresponding to the absorption spectra of the fluorescent agents administered to the animal, enabling simultaneous imaging and quantification of 2 spectrally distinct agents.

ανβ3 [7] = target: T3, ανβ3; assay: Equilibrium binding and dissociation measurements by flow cytometry on HEK293-ανβ3 cells
Protocol: The amount of probe bound to integrins on HEK293-ανβ3 cells was determined by flow cytometry (FACSCalibur, BD Biosciences, CA). Data was analyzed using FlowJo software and Kd values were calculated using SigmaPLot 10 software. For koff determination, HEK293-ανβ3 cells (1×10^6) were incubated with 100 nM of E-6 at 4° C. for 30 minutes and labeled cells were than transferred into PBS containing 10 mM of parent compound. The amount of probe bound to the integrins on HEK293-ανβ3 cells was determined by flow cytometry (FACSCalibur, BD Biosciences, CA) before mixing with unlabeled compound, and 1, 1.5, 2.5, 3.5, 4.5, 5.5, and 24 hours after mixing. Data was analyzed using FlowJo software and koff and t1/2 values calculated using SigmaPLot 10 software.

ανβ3 [8] = target: T3, ανβ3; assay: Inhibition of cell attachment to vitronectin, HEK293-ανβ3 cells; type: cell-based; conditions: for IC50: HEK293-ανβ3 cells, vitronectin-coated wells, 2 hours at 37° C., read-out: IC50 (nM), inhibition of cell attachment to vitronectin, αvβ3
Protocol: as §1, with “Cells (25,000 cells/well) were added to microtiter wells coated with vitronectin and allowed to attach for 2 hours at 37° C. in a humidified incubator in the absence or presence of increasing concentrations of compound E-6 or unlabelled parent compound (as an inhibitor of E-6).” left out

[9] = Biodistribution in A673 tumor-bearing mice; type: in vivo, NU/NU mice; conditions: 2 nmoles i.v., 24 hr
Protocol: For the biodistribution studies, female NU/NU mice 6-8 weeks old (Charles River Laboratory, Wilmington, Mass.) were injected subcutaneously (s.c.) with A673 cells (5×10^6) in the first mammary fat pads. Once tumors reached the desired volume (measured with calipers using the formula volume mm^3=(length×width^2)/2), mice were injected i.v. with compound E-6 (2 nmoles). Mice were sacrificed by carbon dioxide asphyxiation 24 hr later and certain tissues removed, rinsed with saline, blotted dry, and the imaged on VisEn's FMT2500 using the reflectance mode. Regions of interest (ROIs) were drawn around each organ using the FMT Software and the mean fluorescence (reported as counts/energy) determined for each organ and normalized to the mean fluorescence in tumors taken to be 100%.

αIIbβ3 = target: T4, αIIbβ3 (Homo sapiens, UniProt P05106+P08514); assay: Inhibition of cell attachment to vitronectin, HEK293 cells transfected with αIIbβ3; type: cell-based; conditions: for IC50: HEK293 cells stably transfected with αIIbβ3
T4 construct: expressed in transfected cells; host or cells: HEK293
Protocol: as §1, with “Cells (25,000 cells/well) were added to microtiter wells coated with vitronectin and allowed to attach for 2 hours at 37° C. in a humidified incubator in the absence or presence of increasing concentrations of compound E-6 or unlabelled parent compound (as an inhibitor of E-6).” left out

[10] = agent 20 nM, 30 minutes at 37° C.
[11] = pre-incubation 5 minutes with parent compound 200 nM

Cc1ncc([C@@H](CCCCCCc2nc3c(cc2CNC(=O)CCCN(C)S(=O)(=O)c2cccc4c5c(ccc24)N(CCCS(=O)(=O)O)/C(=C/C=C/C=C/C2=[N+](CCS(=O)(=O)[O-])c4ccc6c(S(=O)(=O)O)cc(S(=O)(=O)O)cc6c4C2(C)C)C5(C)C)CCCN3)CC(=O)O)cn1 [Compound E-6]
IC50 (α5β1): > 2000 nM
specific binding to α5β1 (α5β1; in words): no specific binding
imaging of tumors in vivo (4T-1 tumors): imaged effectively
IC50 (ανβ5): 33 nM
loss of affinity to ανβ5 compared to the parent compound (ανβ5; ratio of Table 4 IC50 values): 25 fold
fluorescence in tumors (FMT imaging) (A673 tumors [1]; A673 tumor-bearing mice, agent i.v., in words): readily detected
internalization (receptor recycling, endocytosis) (ανβ3 [2]; 37° C. versus 4° C.): internalization at 37° C., but not at 4 °C
binding to HEK293-ανβ3 cells (confocal microscopy) (ανβ3 [2]; E-6 200 nM, 30 minutes, 4° C. or 37° C.): binds to the receptors on the surface of the cells
fluorescent signal of labeled HUVEC cells [3, 10]: Significant fluorescent signal
plasma t(1)1/2 (free E-6 clearing from circulation) [4]: 6 min
plasma t(2)1/2 (clearance of bound E-6) [4]: 210 min
fluorescent signal of labeled A673 cells [5, 10]: Significant fluorescent signal
signal produced in tumors following Avastin treatment (A673 tumors [6]; A673 tumor-bearing mice, 2 nmoles agent, imaging 24 hours after): decreased by a greater amount than the signal produced by ProSense
koff (ανβ3 [7]; 100 nM E-6, 4° C., HEK293-ανβ3 cells, chase with parent compound, read-out: dissociation rate constant koff): 0.000108 s⁻¹
Kd (ανβ3 [7]; HEK293-ανβ3 cells, 4° C., 30 minutes, single binding site model, read-out: apparent equilibrium binding constant (Kd)): 4.2 ± 0.6 nM
binding isotherms in the absence or presence of Mn^2+ (ανβ3 [7]; in words): practically identical
IC50 (ανβ3 [8]): 4.1 ± 0.3 nM
loss of affinity to ανβ3 compared to the parent compound (ανβ3 [8]; ratio of Table 4 IC50 values): 5 fold
tissue distribution of fluorescence [9]: highest concentration found in tumors, followed by the liver, small intestine and skin
IC50 (αIIbβ3): 39 nM
potency in binding to α11bβ3 compared to the parent compound (αIIbβ3; in words): retains higher potency

CCN1/C(=C/C=C(/C=C/C2N(CC)c3ccc4c(S(=O)(=O)O)cc(S(=O)(=O)O)cc4c3C2(C)C)c2ccc(C(=O)NCCCCCC(=O)NCc3cc4c(nc3CCCCCC[C@@H](CC(=O)O)c3cnc(C)nc3)NCCC4)cn2)C(C)(C)c2c1ccc1c(S(=O)(=O)O)cc(S(=O)(=O)O)cc21 (some centres unmarked) [Compound E-7]
imaging of tumors in vivo (4T-1 tumors): imaged effectively

Nc1ncnc2c1ncn2[C@@H]1O[C@H](OCP(=O)(O)O)C=C1F [Parent Compound, reference compound]
IC50 (α5β1): > 10000 nM
IC50 (ανβ5): 1.3 ± 0.2 nM
effect on total amount of E-6 signal in tumors (competition) (A673 tumors [1]; excess parent compound 100 nmoles, in words): effectively reduces
decrease of total E-6 fluorescence in tumors (A673 tumors [1]; parent compound 100 nmoles versus E-6 alone, p=0.011): 67%
effect on binding of E-6 to HEK293-ανβ3 cells (competition) (ανβ3 [2]; parent compound 200 μM for 1 hour before E-6 incubation): prevented
E-6 fluorescence intensity from HUVEC cells in the presence of a blocking dose [3, 11]: reduced
E-6 fluorescence intensity from A673 cells in the presence of a blocking dose [5, 11]: reduced
IC50 (ανβ3 [8]): 0.82 ± 0.2 nM
IC50 (αIIbβ3): > 10000 nM

Avastin: Avastin (bevacizumab, Genentech, CA), anti-angiogenic treatment [reference compound]
effect of treatment on signal produced by compound E-6 in tumors (A673 tumors [6]; Avastin 2 mg/kg i.p. 2× week, agents injected after 7 days): decreased
